These results are taken from patent US8242157B2, “Benzimidazole derivatives useful as TRPM8 channel modulators” (Janssen Pharmaceutica NV, priority 2009, dated 2012).

The experiment deals with T1, canine TRPM8 (Canis lupus familiaris, UniProt Q1A7N1).
T1 construct: expressed in transfected cells
Briefly: In Vitro Canine TRPM8 Functional Assay (icilin-induced intracellular Ca2+, FLIPR/FDSS). Format: cell-based. The note with it: for inhibition at 0.2 µM: HEK293, 0.2 μM compound, icilin activation, read-out: % Inh @ 0.2 μM. As to the method:
The functional activity of representative compounds of the formula (I) of the present invention was quantified by measuring changes in intracellular calcium concentration using a Ca^2+-sensitive fluorescent dye. The changes in fluorescent signal were monitored by a fluorescence plate reader, either a FLIPR™ (Molecular Devices) or FDSS (Hamamatsu).
HEK293 cells stably expressing canine TRPM8 were routinely grown as monolayers in Dulbecco's minimum essential medium supplemented with 10% FBS, 2 mM L-glutamine, 100 units/mL penicillin, 100 ug/mL streptomycin and 400 μg/mL G418. Cells were maintained in 5% CO2 at 37° C. At 24 hr prior to assay, cells were seeded in black wall, clear-base poly-D-lysine coated 384-well plates (BD Biosciences, NJ, USA) at a density of 5,000 cells per well in culture medium and grown overnight in 5% CO2 at 37° C. On assay day, growth media was removed, and cells were loaded with Calcium 3 Dye (Molecular Devices) for 35 min at 37° C., under 5% CO2 and then incubated for 25 min at room temperature and atmosphere. Subsequently, cells were tested for agonist-induced increases in intracellular Ca^2+ levels using FLIPR™ or FDSS. Cells were treated with compounds of the formula (I) at varying concentrations and intracellular […] was measured for 5 min prior to the addition of icilin to all wells to achieve a final concentration that produces approximately an 80% maximal response.
Basal FI was subtracted prior to normalizing data to percent of maximal response. Curves were generated using the average of quadruplicate wells for each data point using nonlinear regression of either sigmoidal dose response or sigmoidal dose response (variable slope). Finally, the EC50 and IC50 values were calculated with the best-fit curve determined by GraphPad Prism

Setting [1] is: HEK293 cells stably expressing canine TRPM8.
The mark [2] stands for this setting: HEK293 cells stably expressing canine TRPM8, icilin at approx. 80% maximal response, eight-point concentration-response, read-out: IC50.

Structures can show the parent of a compound that is named as a salt. Where two headings read alike, the source gives them in different places.

T1 sequence (Q1A7N1 1-1104): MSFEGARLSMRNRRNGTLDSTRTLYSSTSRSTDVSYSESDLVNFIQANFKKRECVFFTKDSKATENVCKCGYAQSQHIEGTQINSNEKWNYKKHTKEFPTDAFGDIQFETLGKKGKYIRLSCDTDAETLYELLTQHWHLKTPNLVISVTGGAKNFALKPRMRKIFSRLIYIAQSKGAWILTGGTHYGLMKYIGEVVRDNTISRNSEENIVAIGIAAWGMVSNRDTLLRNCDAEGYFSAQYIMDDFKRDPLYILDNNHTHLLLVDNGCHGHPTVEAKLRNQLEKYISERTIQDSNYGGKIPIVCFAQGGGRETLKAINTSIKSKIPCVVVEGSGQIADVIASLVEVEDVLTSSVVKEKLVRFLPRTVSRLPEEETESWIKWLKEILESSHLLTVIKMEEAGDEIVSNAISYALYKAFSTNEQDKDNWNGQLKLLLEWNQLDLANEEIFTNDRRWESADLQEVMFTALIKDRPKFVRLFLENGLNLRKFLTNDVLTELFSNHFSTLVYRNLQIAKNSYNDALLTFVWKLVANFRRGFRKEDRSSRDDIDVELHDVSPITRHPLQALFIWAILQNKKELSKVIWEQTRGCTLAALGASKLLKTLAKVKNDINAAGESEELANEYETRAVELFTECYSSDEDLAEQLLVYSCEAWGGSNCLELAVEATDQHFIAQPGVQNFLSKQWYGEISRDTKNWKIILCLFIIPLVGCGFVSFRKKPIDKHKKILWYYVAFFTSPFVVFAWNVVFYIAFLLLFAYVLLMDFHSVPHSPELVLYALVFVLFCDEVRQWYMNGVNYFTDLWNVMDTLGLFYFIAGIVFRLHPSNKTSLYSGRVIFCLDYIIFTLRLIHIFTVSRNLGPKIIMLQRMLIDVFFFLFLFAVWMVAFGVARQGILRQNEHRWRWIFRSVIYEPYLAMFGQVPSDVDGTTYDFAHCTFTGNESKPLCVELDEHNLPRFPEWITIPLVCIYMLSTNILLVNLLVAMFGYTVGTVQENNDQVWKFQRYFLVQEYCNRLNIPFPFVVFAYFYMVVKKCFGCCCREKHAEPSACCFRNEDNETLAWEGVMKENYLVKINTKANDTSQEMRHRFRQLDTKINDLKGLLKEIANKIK

Consider `CC(C)Cn1c(N(Cc2ccc(C(F)(F)F)c(F)c2)S(=O)(=O)c2ccccc2)nc2ccccc21` [compound 50], for which the inhibition at 0.2 µM under setting [1] came out at 82%. In addition, the IC50 – broadly, the point on the concentration scale where inhibition reaches its midpoint – under setting [2] turned out to be 37 nM.

As for `CC(C)Cn1c(N(Cc2ccc(OC(F)(F)F)cc2)S(=O)(=O)c2ccccc2)nc2ccccc21` [compound 49], the inhibition at 0.2 µM under setting [1] was 81%. For the same molecule, the IC50 under setting [2] amounted to 48 nM.

As for `O=S(=O)(c1ccccc1)N(Cc1ccc(C(F)(F)F)cc1)c1nc2cccc3c2n1CCC3` [compound 65], the inhibition at 0.2 µM under setting [1] came to 101%. Moreover, the IC50 under setting [2] is 17 nM.

With `Cn1c(N(Cc2ccc(F)c(C(F)(F)F)c2)S(=O)(=O)c2cccc(Cl)c2)nc2ccccc21` [compound 14], the inhibition at 0.2 µM under setting [1] is 97%. Moreover, the IC50 under setting [2] was 30 nM.

Take `Cn1c(N(Cc2ccc(F)c(C(F)(F)F)c2)S(C)(=O)=O)nc2ccccc21` [compound 17]: the inhibition at 0.2 µM under setting [1] worked out at 99%. In addition, the IC50 under setting [2] turned out to be 5 nM.

As to `Cn1c(N(Cc2ccc(C(F)(F)F)c(F)c2)S(=O)(=O)c2ccc(F)cc2)nc2ccccc21` [compound 38], the inhibition at 0.2 µM under setting [1] amounted to 102%. Further, the IC50 under setting [2] stood at 11 nM.

Consider `Cn1c(N(Cc2ccc(C(F)(F)F)c(F)c2)S(=O)(=O)c2ccc(C(F)(F)F)cc2)nc2ccccc21` [compound 40], for which the inhibition at 0.2 µM under setting [1] came out at 101%. Besides, under setting [2], the IC50 was 60 nM.

As for `Cn1c(N(Cc2ccc(OC(F)(F)F)cc2)S(=O)(=O)c2ccc(Cl)cc2)nc2ccccc21` [compound 26], under setting [1], the inhibition at 0.2 µM was determined as 102%. Besides, the IC50 under setting [2] turned out to be 11 nM.

Take `CCn1c(N(Cc2ccc(C(F)(F)F)c(F)c2)S(=O)(=O)c2ccccc2)nc2cc(F)ccc21` [compound 48]: the inhibition at 0.2 µM under setting [1] turned out to be 100%. In addition, under setting [2], the IC50 stood at 7 nM.

`Cn1c(N(Cc2ccc(SC(F)(F)F)cc2)S(=O)(=O)c2ccccc2)nc2ccccc21` [compound 19]: under setting [1], the inhibition at 0.2 µM was 101%. Besides, the IC50 under setting [2] amounted to 1 nM.

As for `O=S(=O)(c1ccccc1)N(Cc1ccc(OC(F)(F)F)cc1)c1nc2cccc3c2n1CCO3` [Compound #73], the inhibition at 0.2 µM under setting [1] came to 99%. Also, the IC50 under setting [2] is 3.4 nM.

As for `CN(c1nc2ccccc2n1C)S(=O)(=O)c1ccccc1` [Compound #3, N-methyl-N-(1-methyl-1H-benzimidazol-2-yl)-benzenesulfonamide], the inhibition at 0.2 µM under setting [1] came out at 9%. The inhibition at 1 µM (re-test, 1 μM, 10 mM stock diluted with 100% DMSO prior to addition to assay buffer) worked out at 101%. In addition, the half-inhibitory concentration (IC50) (re-test, 10 mM stock diluted with 100% DMSO prior to addition to assay buffer, read-out: calculated IC50) was 94 nM.

Take `Cn1c(N(Cc2ccc(OC(F)F)cc2)S(=O)(=O)c2ccccc2)nc2ccccc21` [compound 23]: under setting [1], the inhibition at 0.2 µM amounted to 102%. Besides, the IC50 under setting [2] is 2 nM.

For the molecule `Cn1c(N(Cc2ccccc2)S(=O)(=O)c2ccccc2)nc2ccccc21` [compound 10], the inhibition at 0.2 µM under setting [1] worked out at 101%. In addition, the IC50 under setting [2] was 8 nM.

For the molecule `Cn1c(N(Cc2ccc(C(F)(F)F)c(F)c2)S(=O)(=O)c2ccccc2)nc2cc(F)ccc21` [compound 58], under setting [1], the inhibition at 0.2 µM was determined as 99%. Further, the concentration for half-maximal inhibition (IC50) under setting [2] was 6 nM.

Regarding `Cc1cccc2c1nc(N(Cc1ccc(C(F)(F)F)c(F)c1)S(=O)(=O)c1ccccc1)n2C` [compound 76], the inhibition at 0.2 µM under setting [1] is 101%. For the same molecule, the 50% inhibitory concentration (IC50) under setting [2] amounted to 9.4 nM.

Turning to `Cc1ccc(S(=O)(=O)N(Cc2ccc(F)c(C(F)(F)F)c2)c2nc3ccccc3n2C)cc1` [compound 18], under setting [1], the inhibition at 0.2 µM came out at 106%. The IC50 under setting [2] is 14 nM.

Take `Cn1c(N(Cc2cc(C(F)(F)F)ccc2F)S(=O)(=O)c2ccccc2)nc2ccccc21` [compound 22]: the inhibition at 0.2 µM under setting [1] was 102%. Besides, under setting [2], the IC50 worked out at 6 nM.

For `Cn1c(N(Cc2cccc(C(F)(F)F)c2)S(=O)(=O)c2ccccc2)nc2ccccc21` [Compound #12, N-(1-Methyl-1H-benzimidazol-2-yl)-N-(3-trifluoromethyl-benzyl)-benzenesulfonamide], the inhibition at 0.2 µM under setting [1] was determined as 102%. For the same molecule, the IC50 under setting [2] stood at 3 nM.

`Cn1c(N(Cc2ccc(OC(F)(F)F)cc2)S(=O)(=O)c2ccc(F)cc2)nc2ccccc21` [compound 32]: the inhibition at 0.2 µM under setting [1] was determined as 94%. For the same molecule, under setting [2], the IC50 is 6 nM.

Take `O=S(=O)(c1ccccc1)N(Cc1ccc(C(F)(F)F)cc1)c1nc2cccc3c2n1CCO3` [Compound #72, N-(3,4-Dihydro-5-oxa-1,2a-diaza-acenaphthylen-2-yl)-N-(4-trifluoromethyl-benzyl)-benzenesulfonamide TFA salt]: the inhibition at 0.2 µM under setting [1] amounted to 99%. For the same molecule, the IC50 under setting [2] was determined as 22 nM.

For the molecule `O=S(=O)(c1ccccc1)N(Cc1ccc(OC(F)(F)F)cc1)c1nc2ccccc2n1CC1CC1` [compound 69], under setting [1], the inhibition at 0.2 µM is 101%. The IC50 under setting [2] was found to be 26 nM.

For `O=S(=O)(c1ccccc1)N(Cc1ccc(C(F)(F)F)cc1)c1nc2ccccc2n1CC1CC1` [compound 70], the inhibition at 0.2 µM under setting [1] is 101%. Also, under setting [2], the concentration for half-maximal inhibition (IC50) amounted to 35 nM.

For `Cn1c(N(Cc2ccc(C(F)(F)F)cc2)S(=O)(=O)c2ccccc2)nc2cc(F)ccc21` [compound 43], the inhibition at 0.2 µM under setting [1] was 100%. Besides, the concentration for half-maximal inhibition (IC50) under setting [2] was 4 nM.

In the case of `Cn1c(N(Cc2ccc(C(F)(F)F)cc2)S(=O)(=O)c2ccc(F)cc2)nc2ccccc21` [compound 28], under setting [1], the inhibition at 0.2 µM was determined as 95%. Besides, the IC50 under setting [2] stood at 6 nM.

On to `Cn1c(N(Cc2ccc(C(F)(F)F)cc2)S(=O)(=O)c2ccccc2)nc2ccccc21` [compound 11], for which the inhibition at 0.2 µM under setting [1] came out at 101%. Further, under setting [2], the IC50 came to 2 nM.

For the molecule `Cn1c(N(Cc2ccc(C(F)(F)F)cc2)S(=O)(=O)c2ccc(Cl)cc2)nc2ccccc21` [compound 41], under setting [1], the inhibition at 0.2 µM was 102%. For the same molecule, the IC50 under setting [2] was determined as 9 nM.

Regarding `Cn1c(N(Cc2cccc(OC(F)(F)F)c2)S(=O)(=O)c2ccccc2)nc2ccccc21` [compound 13], the inhibition at 0.2 µM under setting [1] is 101%. The IC50 under setting [2] is 3 nM.

With `O=S(=O)(c1ccccc1)N(Cc1ccc(OC(F)(F)F)cc1)c1nc2ccccc2n1CC(F)(F)F` [compound 59], under setting [1], the inhibition at 0.2 µM stood at 76%. The IC50 under setting [2] turned out to be 77 nM.

As for `Cn1c(N(Cc2ccc(C(F)(F)F)cc2)S(=O)(=O)c2ccc(C(F)(F)F)cc2)nc2ccccc21` [compound 31], the inhibition at 0.2 µM under setting [1] was determined as 96%. For the same molecule, the IC50 under setting [2] was determined as 33 nM.

`Cn1c(N(Cc2ccc(OC(F)(F)F)cc2)S(=O)(=O)c2ccccc2)nc2cc(F)ccc21` [compound 57]: under setting [1], the inhibition at 0.2 µM came to 99%. The IC50 under setting [2] was 9 nM.

For `Cn1c(N(Cc2ccc(C(F)(F)F)c(F)c2)S(=O)(=O)c2ccc(Cl)cc2)nc2ccccc21` [compound 39], the inhibition at 0.2 µM under setting [1] came out at 102%. The IC50 under setting [2] worked out at 10 nM.

For the molecule `CCn1c(N(Cc2ccc(C(F)(F)F)cc2)S(=O)(=O)c2ccccc2)nc2ccccc21` [compound 30], the inhibition at 0.2 µM under setting [1] came out at 96%. Under setting [2], the IC50 is 4 nM.

`Cn1c(N(Cc2ccc(OC(F)(F)F)cc2)S(=O)(=O)c2ccc(C(F)(F)F)cc2)nc2ccccc21` [compound 27]: the inhibition at 0.2 µM under setting [1] worked out at 101%. Further, under setting [2], the IC50 is 49 nM.

In the case of `Cc1cc2nc(N(Cc3ccc(OC(F)(F)F)cc3)S(=O)(=O)c3ccccc3)n(C)c2cc1C` [compound 74], the inhibition at 0.2 µM under setting [1] stood at 99%. For the same molecule, under setting [2], the IC50 was determined as 19 nM.

As to `Cn1c(N(Cc2ccc(F)c(F)c2)S(=O)(=O)c2ccccc2)nc2ccccc21` [compound 9], the inhibition at 0.2 µM under setting [1] came to 101%. Besides, the half-inhibitory concentration (IC50) under setting [2] turned out to be 2 nM.
